Experimental data: patent US20090221829A1 (priority 2005, published 2009)
Like-named read-outs stand apart in the source and are kept apart here.

How the values were obtained:
[1] = system: Candida albicans(KCTC 1940), Aspergillus niger (ATCC 9642) and Saccharomyces cerevisiae; assay: Relative antifungal activity by agar dilution method (vs Miconazole); assay type: cell-based;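 note: scores 5 to 7 mean a lower fungicidal concentration than Miconazole so higher is more potent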
Excerpt: Novel compounds represented by the above chemical formula (I), and the relative activities in accordance with the agar dilution method in Sabouraud dextrose agar media, Czapek agar media and Yeast Extract-Peptone-Dextrose agar media for Candida albicans(KCTC 1940), Aspergillus niger (ATCC 9642) and Saccharomyces cerevisiae are described respectively in following Table 1.

various kinds of Candida = assay: MIC (Minimal Inhibitory Concentration) data; assay type: cell-based
[2] = Oral toxicity test (general symptoms, weight change, lethal case); assay type: in vivo, rats (SD); details: for LD50: SD, rat, in vivo, 1000 mg/kg, rats, oral, read-out: Acute toxicity LD50
Protocol: Meanwhile, the toxicity test of the compound in table II of the present invention was performed using […]. The compound was suspended in propylene glycol. The resulting suspension was medicated respectively on 6 female rats and 5 male rats (SD) of which age are 5 weeks, via oral after 12 hours starvation. The general symptoms, weight change and lethal case of the above rats were investigated.
In cases of the tests of the compounds (Compound No. 12, 119, 134, 148, 150)(delivery of 1,000 mg/kg), the general symptom and weight change were normal and the lethal case was not observed.

salmonella typhimurium = assay: Bacterial reverse mutation test (Ames test); assay type: cell-based
[3] = system: cultured lung cells derived from chinese hamster; assay: Chromosome aberration test; assay type: cell-based; details: cultured lung cells derived from chinese hamster
Micronucleus test = assay type: in vivo; details: male ICR mice
[4] = agar dilution method, fungicidal concentration relative to control drug Miconazole (=4)
[5] = antifungal activity relative to Miconazole, agar dilution
[6] = oral, 1,000 mg/kg, suspended in propylene glycol, SD rats

| Structure (SMILES) | melting point | Relative Activity [1, 4] | also measured |
| --- | --- | --- | --- |
| COc1cc2c(cc1OC)C(c1ccc(C(C)(C)C)cc1)=[N+](Cc1ccc(F)c(F)c1)CC2.[Cl-] [Compound No. 48, 1-(4-t-butylphenyl)-2-(3,4-difluorophenyl)methyl-3,4-dihydro-6,7-dimethoxyisoquinolinium chloride] | 97 °C | 6 | – |
| COc1cc2c(cc1OC)C(C)=[N+](Cc1cccc(OC)c1OCc1ccc(C(C)(C)C)cc1)CC2.[Cl-] [Compound No. 138, 1-methyl-2-(2-(4-t-butylbenzyloxy)-3-methoxyphenyl)methyl-3,4-dihydro-6,7-dimethoxy isoquinolinium chloride] | 105 °C | 6 | – |
| CCCCCCCCCCCCCCCc1c2cc(OC)c(OC)cc2cc[n+]1Cc1ccc(C(C)(C)C)cc1.[Cl-] [Compound No. 147, 1-pentadecyl-2-(4-t-butylphenyl)methyl-6,7-dimethoxyisoquinolinium chloride] | 120 °C | – | Relative Activity [1, 5]: 1 |
| CCCCCCCCCCCC1=[N+](Cc2ccc(C(C)(C)C)cc2)CCc2cc(OC)c(OC)cc21.[Cl-] [Compound No. 127, 1-undecyl-2-(4-t-butylphenyl)methyl-3,4-dihydro-6,7-dimethoxy isoquinolinium chloride] | 85 °C | 1 | MIC (various kinds of Candida; C. albicans ATCC 11651, unit assumed): 0.78 µg/mL; MIC (various kinds of Candida; C. albicans ATCC 28838, unit assumed): 1.56 µg/mL; MIC (various kinds of Candida; C. albicans IFO 1385, unit assumed): 0.78 µg/mL; MIC (various kinds of Candida; C. albicans OY-003, unit assumed): 1.56 µg/mL; MIC (various kinds of Candida; C. albicans OY-019, unit assumed): 0.78 µg/mL; MIC (various kinds of Candida; C. albicans U.K, unit assumed): 1.56 µg/mL; MIC (various kinds of Candida; C. glabrata, unit assumed): 1.56 µg/mL; MIC (various kinds of Candida; C. glulliermondi, unit assumed): 1.56 µg/mL; MIC (various kinds of Candida; C. krusei (KCTC7273), unit assumed): 1.56 µg/mL; MIC (various kinds of Candida; C. parapsilosis, unit assumed): 1.56 µg/mL |
| CCCCCCCCCCCC1=[N+](Cc2ccc(C(C)(C)C)cc2)CCc2cc(NC)c(OC)cc21 | – | 1 | MIC (various kinds of Candida; C. glabrata): 3.125; MIC (various kinds of Candida; C. glulliermondi): 3.125; LD50 ([2]; female): > 1500 mg/kg; LD50 ([2]; male): > 2500 mg/kg; general symptom [2, 6]: normal; lethal case [2, 6]: not observed; weight change [2, 6]: normal; Genetic toxicity AMES test (salmonella typhimurium): negative; bacterial reverse mutation test (Ames test) result (salmonella typhimurium): negative; Genetic toxicity Chromosome abmormality test [3]: negative; chromosome aberration test result [3]: negative; Genetic toxicity Nucleus test (Micronucleus test): negative; micronucleus test result (Micronucleus test): negative |
| COc1cc2cc[n+](Cc3c(F)cccc3Cl)c(C)c2cc1OC.[Cl-] [Compound No. 140, 1-methyl-2-(2-chloro-6-fluorophenyl)methyl-6,7-dimethoxyisoquinolinium chloride] | 96 °C | – | Relative Activity [1, 5]: 6 |
| COc1cc2cc[n+](Cc3ccc(C(C)(C)C)cc3)c(C)c2cc1OC.[Cl-] [Compound No. 143, 1-methyl-2-(4-t-butylphenyl)methyl-6,7-dimethoxyisoquinolinium chloride] | 350 °C | – | Relative Activity [1, 5]: 6 |
| COc1cc2c(cc1OC)C(c1ccccc1F)=[N+](Cc1c(F)cccc1F)CC2.[Cl-] [Compound No. 62, 1-(2-fluorophenyl)-2-(2,6-difluorophenyl)methyl-3,4-dihydro-6,7-dimethoxyisoquinolinium chloride] | 79 °C | 6 | – |
| CCCCCCC1=[N+](Cc2ccc(C(C)(C)C)cc2)CCc2cc(OC)c(OC)cc21.[Cl-] [Compound No. 126, 1-hexyl-2-(4-t-butylphenyl)methyl-3,4-dihydro-6,7-dimethoxy isoquinolinium chloride] | 34 °C | 4 | – |
| COc1cc2c(cc1OC)C(c1ccc(C(C)(C)C)cc1)=[N+](Cc1ccccc1F)CC2.[Cl-] [Compound No. 22, 1-(4-t-butylphenyl)-2-(2-fluorophenyl)methyl-3,4-dihydro-6,7-dimethoxyisoquinolinium chloride] | 125 °C | 6 | – |
| COc1ccc2c(c1)CC[N+](Cc1ccccc1F)=C2C(C)C.[Cl-] [Compound No. 83, 1-i-propyl-2-(2-fluorophenyl)methyl-3,4-dihydro-6-methoxyisoquinolinium chloride] | 102 °C | 6 | – |
| CC(C)(C)c1ccc(C2=[N+](Cc3ccccc3F)CCc3cc4c(cc32)OCO4)cc1.[Cl-] | 148 °C | – | – |
| COc1cc2c(cc1OC)C(c1ccc(C(C)(C)C)cc1)=[N+](Cc1ccccc1Cl)CC2.[Cl-] [Compound No. 55, 1-(4-t-butylphenyl)-2-(2-chlorophenyl)methyl-3,4-dihydro-6,7-dimethoxyisoquinolinium chloride] | 117 °C | 6 | – |
| CCCCCC1=[N+](Cc2c(F)cccc2F)CCc2cc(OC)c(OC)cc21.[Cl-] [Compound No. 57, 1-n-pentyl-2-(2,6-difluorophenyl)methyl-3,4-dihydro-6,7-dimethoxyisoquinolinium chloride] | 196 °C | 6 | – |

Further lines, with some results ahead:

| melting point | Structure (SMILES) | Relative Activity [1, 4] | also measured |
| --- | --- | --- | --- |
| 182 °C | COc1cc2c(cc1OC)C(Cc1ccc(Cl)cc1Cl)=[N+](Cc1ccccc1F)CC2.[Cl-] [Compound No. 25, 1-(2,4-dichlorophenyl)methyl-2-(2-fluorophenyl)methyl-3,4-dihydro-6,7-dimethoxyisoquinolinium chloride] | 6 | – |
| 78 °C | CCCc1c2cc(OC)c(OC)cc2cc[n+]1Cc1c(F)cccc1Cl.[Cl-] [Compound No. 139, 1-propyl-2-(2-chloro-6-fluorophenyl)methyl-6,7-dimethoxy-isoquinolinium chloride] | – | Relative Activity [1, 5]: 6 |
| 104 °C | CCCCCCCCCCCCCCCC1=[N+](Cc2c(F)cccc2F)CCc2cc(OC)c(OC)cc21.[Cl-] [Compound No. 60, 1-n-pentadecyl-2-(2,6-difluorophenyl)methyl-3,4-dihydro-6,7-dimethoxyisoquinolinium chloride] | 1 | – |
| 118 °C | COc1cc2c(cc1OC)C(c1cc(F)cc(F)c1)=[N+](Cc1ccccc1F)CC2.[Cl-] [Compound No. 18, 1-(3,5-difluorophenyl)-2-(2-fluorophenyl)methyl-3,4-dihydro-6,7-dimethoxyisoquinolinium chloride] | 6 | – |
| 166 °C | CCCCCCCCCCCCCCCC1=[N+](Cc2ccc(C(C)(C)C)cc2)CCc2cc(OC)c(OC)cc21.[Cl-] [Compound No. 128, 1-pentadecyl-2-(4-t-butylphenyl)methyl-3,4-dihydro-6,7-dimethoxy isoquinolinium chloride] | 1 | – |
| 112 °C | CCCCCCCC1=[N+](Cc2ccccc2F)CCc2cc(OC)c(OC)cc21.[Cl-] [Compound No. 11, 1-n-heptyl-2-(2-fluorophenyl)methyl-3,4-dihydro-6,7-dimethoxyisoquinolinium chloride] | 4 | – |
| 101 °C | CCCCc1ccc(C2=[N+](Cc3ccccc3F)CCc3cc4c(cc32)OCO4)cc1.[Cl-] | – | – |
| 79 °C | CCCc1c2cc(OC)c(OC)cc2cc[n+]1Cc1ccc(C(C)(C)C)cc1.[Cl-] [Compound No. 144, 1-propyl-2-(4-t-butylphenyl)methyl-6,7-dimethoxyisoquinolinium chloride] | – | Relative Activity [1, 5]: 6 |
| 88 °C | COc1cc2c(cc1OC)C(C)=[N+](Cc1ccc(F)c(F)c1)CC2.[Cl-] [Compound No. 39, 1-methyl-2-(3,4-difluorophenyl)methyl-3,4-dihydro-6,7-dimethoxyisoquinolinium chloride] | 6 | – |
| 88 °C | CC1=[N+](Cc2ccc(F)c(F)c2)CCc2cc3c(cc21)OCO3.[Cl-] [Compound No. 111, 1-methyl-2-(3,4-difluorophenyl)methyl-3,4-dihydro-6,7-methylenedioxyisoquinolinium chloride] | 6 | – |
| 105 °C | CCCCCCc1c2cc(OC)c(OC)cc2cc[n+]1Cc1ccc(C(C)(C)C)cc1.[Cl-] [Compound No. 145, 1-hexyl-2-(4-t-butylphenyl)methyl-6,7-dimethoxyisoquinolinium chloride] | – | Relative Activity [1, 5]: 4 |
